# Like-named read-outs stand apart in the source and are kept apart here.
# Assays:
# [1] = test system: L. donovani promastigotes; test: Dose-dependent anti-promastigote activity, IC50 and IC90; format: cell-based, Leishmania donovani; conditions: Leishmania donovani, 72 h; for IC50: read-out: L. donovani promastigotes IC50 ± SEM; for IC90: read-out: L. donovani promastigotes IC90 ± SEM
# Procedure: L. donovani parasites (MHOM/IN/83/AG83) were maintained in vivo in BALB/c mice. Promastigotes were routinely cultured at 22°C in medium M199 supplemented with 10% heat inactivated fetal bovine serum (FBS, HiMedia Laboratories, Mumbai, India), penicillin 100 (IU/ml), streptomycin (100 μg/ml). Log phase promastigotes were sub-cultured every 72–96 h, the inoculum being 2 × 10^6 cells/ml (Afrin et al., [2002]).
# AmB was used as a standard antileishmanial drug control. The cell viability was evaluated by microscopically and the mean percentage viability was calculated as follows: Mean cell number of treated parasites / Mean cell number of untreated parasites × 100. The 50 and 90% inhibitory concentration (IC50 and IC90) i.e., the concentration of drugs that decreased the cell growth by 50 and 90% respectively was determined by graphical extrapolation after plotting the graph of % viability vs. concentration of drug (Islamuddin et al., [2014b]).
# In vitro antileishmanial activity was expressed as IC50 by linear regression analysis. Values are mean ± SE of samples in triplicate from at least three independent experiments. Statistical analysis was performed using ANOVA followed by Dunnett's test. ^*P < 0.05, ^**P < 0.01 and ^***P < 0.001 compared with the untreated control group were considered significant.
# [2] = test system: Candida glabrata ATCC 90030; test: Broth microdilution antifungal susceptibility (MIC/MFC); format: cell-based; conditions: for MIC / MFC: Nakaseomyces glabratus; for MIC: ATCC90030, 48 h
# Summary of the method: (§1)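 CLSI broth microdilution: Ca/Mg-supplemented Mueller-Hinton for bacteria (~5 × 10^5 CFU/mL, 24 h), MOPS-buffered RPMI 1640 pH 7.0 for fungi (Candida ~2.5 × 10^4, Aspergillus 0.4-5 × 10^4 CFU/mL, 48 h), 35°C, 1% DMSO, 64 to 0.12 μg/mL. MIC read visually; MBC/MFC by plating clear wells.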
# [3] = test system: Aspergillus niger ATCC 16404; test: as above; format: cell-based; conditions: for MIC / MFC: Aspergillus niger; for MIC: ATCC16404, 48 h
# Summary of the method: as §1
# [4] = test system: Aspergillus fumigatus ATCC 16424; test: as above; format: cell-based; conditions: for MIC / MFC: Aspergillus fumigatus; for MIC: ATCC16424, 48 h
# Summary of the method: as §1
# [5] = test system: Candida albicans ATCC 90028; test: as above; format: cell-based; conditions: for MIC / MFC: Candida albicans; for MIC: ATCC90028, 48 h
# Summary of the method: as §1
# [6] = test system: L. donovani promastigotes; test: Leishmanicidal assay (growth reversion after wash-out); format: cell-based, Leishmania donovani; conditions: 1 μM, 72 h treatment, then 72 h in fresh media
# Procedure: To confirm the leishmanicidal effect of compounds 9, 12, 14, and 18, treated and untreated parasites (1 μM) after 72 h of incubation, were washed two times with fresh incomplete medium and finally resuspended in complete media, transferred back to 22°C and allowed to grow for 72 h. The viability of the parasites was determined microscopically (Afrin et al., [2001]).
# [7] = test system: L. donovani promastigotes; test: Anti-leishmanial screening at 100 μM, parasite viability by microscopy; format: cell-based, Leishmania donovani; conditions: 100 μM, 72 h, phase contrast microscope
# Summary of the method: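 Promastigotes (MHOM/IN/83/AG83) at 2 × 10^6 cells/mL in M199 with 10% FBS exposed to compound at 100 μM for 72 h at 22°C. Viability assessed microscopically; 0.2% DMSO solvent control, amphotericin B reference.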
# [8] = read-out: MIC, Cg ATCC 90030, broth microdilution, 35°C, 48 h
# [9] = ATCC90030, read-out: MFC, Cg ATCC 90030
# [10] = broth microdilution, 35°C, 48 h
# [11] = read-out: MIC, An ATCC 16404, broth microdilution, 35°C, 48 h
# [12] = ATCC16404, read-out: MFC, An ATCC 16404
# [13] = read-out: MIC, Af ATCC 16424, broth microdilution, 35°C, 48 h
# [14] = ATCC16424, read-out: MFC, Af ATCC 16424
# [15] = read-out: MIC, Ca ATCC 90028, broth microdilution, 35°C, 48 h
# [16] = ATCC90028, read-out: MFC, Ca ATCC 90028
# [17] = 22°C, mean from three determinations
# [18] = ATCC90030, ≥99.9% reduction of original inoculum, read-out: MFC, Cg ATCC 90030
# [19] = broth microdilution, 35°C, 48 h, read-out: MIC, An ATCC 16404
# [20] = ATCC16404, ≥99.9% reduction of original inoculum, read-out: MFC, An ATCC 16404
# [21] = broth microdilution, 35°C, 48 h, read-out: MIC, Af ATCC 16424
# [22] = ATCC16424, ≥99.9% reduction of original inoculum, read-out: MFC, Af ATCC 16424
# [23] = ATCC90028, ≥99.9% reduction of original inoculum, read-out: MFC, Ca ATCC 90028
Structure (SMILES),IC50 [1] [µM],IC90 [1] [µM],"MIC [2, 8] [µg/mL]","MFC [2, 9] [µg/mL]","MIC [3, 11] [µg/mL]","MFC [3, 12] [µg/mL]","MIC, An ATCC 16404 [3, 10] [µg/mL]","MIC [4, 13] [µg/mL]","MFC [4, 14] [µg/mL]","MIC, Af ATCC 16424 [4, 10] [µg/mL]","MIC [5, 15] [µg/mL]","MFC [5, 16] [µg/mL]",Leishmanicidal effect (reversion after wash and 72 h in fresh media) [6],Parasite viability after treatment [7],"IC50 [1, 17] [µM]","IC90 [1, 17] [µM]","MFC [2, 18] [µg/mL]","MIC [3, 19] [µg/mL]","MFC [3, 20] [µg/mL]","MIC [4, 21] [µg/mL]",further results
"CC/C(=C\c1ccc([N+](=O)[O-])cc1)[N+](=O)[O-] [Compound 9, 1-nitro-4-((E)-2-nitrobut-1-enyl) benzene]",0.0234 ± 0.00071,0.0902 ± 0.00111,0.25 to 16,0.25,2 to 4,4,4,4 to 8,8,8,4 to 32,8,did not revert back to their normal morphology and still appeared dead,All the parasites were found to be dead,,,,,,,"MIC, Cg ATCC 90030 [2, 10]: 0.25 µg/mL; MIC, Ca ATCC 90028 [5, 10]: 8 µg/mL"
"CC/C(=C\c1cccc([N+](=O)[O-])c1)[N+](=O)[O-] [Compound 12, 1-nitro-3-((E)-2-nitrobut-1-enyl) benzene]",0.0378 ± 0.00374,0.08646 ± 0.00021,0.25,0.25,0.5,0.5,,1,1,,2,2,did not revert back to their normal morphology and still appeared dead,All the parasites were found to be dead,,,,,,,
"COc1ccc(/C=C(\C)[N+](=O)[O-])cc1 [Compound 14, 1-methoxy-4-((E)-2-nitroprop-1-enyl) benzene]",,,,,,,,,,,,,did not revert back to their normal morphology and still appeared dead,All the parasites were found to be dead,0.0405 ± 0.00147,0.089 ± 0.00052,8,4,4,8,"MIC ([2]; broth microdilution, 35°C, 48 h, read-out: MIC, Cg ATCC 90030): 8 µg/mL; MFC [4, 22]: 8 µg/mL; MIC ([5]; broth microdilution, 35°C, 48 h, read-out: MIC, Ca ATCC 90028): 32 µg/mL; MFC [5, 23]: 32 µg/mL"
"CC/C(=C\c1ccc(O)cc1)[N+](=O)[O-] [Compound 18, 4-((E)-2-nitrobut-1-enyl) phenol]",,,,,,,4,,,8,,,did not revert back to their normal morphology and still appeared dead,All the parasites were found to be dead,0.0557 ± 0.00284,0.321 ± 0.00365,8,2 to 4,8,4 to 8,"MFC [4, 22]: 16 µg/mL; MFC [5, 23]: 16 µg/mL"
